Here are results for 2 compounds from PMC3687097 (Diabetes Therapy, 2013).

The structures appear in SMILES notation. Entries after “also recorded” stand apart in the source; their conditions may differ. Read-outs that look alike come from different tables or passages of the source.

The conditions of data set [1]: for Patients reporting an adverse event: 22 patients.
The conditions of data set [2]: cited from earlier work.

On to `CCOc1ccc(Cc2cc([C@@H]3O[C@H](CO)[C@@H](O)[C@H](O)[C@H]3O)ccc2Cl)cc1` [Dapagliflozin], for which the Episodes of hypoglycemia result in data set [1] (dapagliflozin 10 mg single oral dose, with and without voglibose) was “no episodes of hypoglycemia”. Also, the “Patients reporting an adverse event” value in data set [1] (pharmacokinetic sampling period 1: dapagliflozin with voglibose) is given as “one patient”; in data set [1] (pharmacokinetic sampling period 2: dapagliflozin only) it was “three patients”. In addition, the “Intensity of observed AEs” value in data set [1] (whole study, dapagliflozin 10 mg with or without voglibose) was “mild or moderate”.
On to `OCC(CO)N[C@H]1C[C@](O)(CO)[C@@H](O)[C@H](O)[C@H]1O` [Voglibose], for which, in data set [2], the “Systemic / gastrointestinal absorption after oral administration” value is recorded as “poorly absorbed; also recorded: minimal systemic absorption”.
